# In patent publication US10662222B2, “Drug delivery enhancement agents” (The University of Bath, priority 2014, dated 2020):
# Read-outs that look alike come from different tables or passages of the source.
# Experiments:
# [1] = test system: Caco-2 cell monolayers; assay: Trans-epithelial electrical resistance (TEER) of Caco-2 monolayers after apical peptide application; assay type: cell-based, human; details: for Efficacy at 5 mM (TEER reduction): apical application to Caco-2 cell monolayers
# Protocol: An immortalized human intestinal epithelial cell line (Caco-2) were maintained in DMEM/F12 medium (Gibco, Paisley, UK) supplemented with 10% FBS, 2 mM L-glutamine (Gibco) 100 U/ml penicillin and 100 μg/ml streptomycin (Gibco). Caco-2 cells were seeded at a density of 7×10^4/well on Transwell™ (Corning, N.Y.) polyester membrane filters (12 mm diameter, 0.4 μm pore size). Re-feeding with DMEM (Life Technologies, Paisley, UK) was carried out every second day. Caco-2 monolayers with trans-epithelial electrical resistance (TEER)>350 Ω·cm2 were considered confluent and used in transport assays; fixed paddle electrodes were used to measure TEER (World Precision Instruments, UK).
# (§1) Apical to basal flux of 50 mg/ml 4 kDa dextran or 50 mg/ml 70 kDa dextran (Sigma) was performed to assess the impact of PIP peptides on paracellular permeability. Apical compartment volume was 200 μl; at set times the 600 μl basal compartment volume was collected and replaced with fresh HBSS. Apical and basal compartment fluorescence was determined using a Floustar Omega microplate reader (BMG Labtech, Ortenburg, Germany). TEER measurements were made for each well immediately after HBSS replacement. After 3 hr, the apical compartment dextran and peptide solution was removed and replaced with PBS and TEER values were recorded for a further 30 min to assess monolayer recovery.
# (§2) TEER values were calculated by subtracting blank filter reading and normalized as a percentage of the initial TEER value for that monolayer. Fluorescent dextran flux used to calculate paracellular permeability was performed as previously described. Blood glucose levels were expressed as a percentage of the baseline glucose levels for each animal. Data were compared to control values using a two-tailed, un-paired Student's T-test.
# Peptides were applied apically at a concentration of 5 mM to confluent monolayers of Caco-2 cells grown on semi-permeable inserts (Rubus et al. (1996) J. Pharma. Sci 85:165-169) to assess their ability to affect TJ function (Peterson & Mooseker (1992) J. Cell. Sci. 102(3):581-600). RRVEVKYDRR (peptide #6; peptide 640, SEQ ID NO: 3) reduced the trans-epithelial electrical resistance (TEER) of Caco-2 monolayers with a drop of 50% within 25 min of addition (FIG. 4), and none of the peptides were toxic at this concentration according to MTT assay (Mosman (1983) J. Immunol. Methods 65:55-63). Critically, following gentle washing, RRVEVKYDRR (SEQ ID NO: 3)-treated Caco-2 monolayers TEER values recovered to 80% of their original values within 24 h. A lead candidate, peptide NH2-rrdykvevrr-NH2, (SEQ ID NO: 20) was identified based on the RRVEVKYDRR (SEQ ID NO: 3) sequence but using the retro-inverso configuration with D-configuration amino acids.
# [2] = test system: Caco-2 monolayers; assay: Apical to basal flux of fluorescent dextran (4 kDa, 70 kDa) across Caco-2 monolayers; assay type: cell-based, human; details: for transport of paracellular marker 4 kDa fluorescent dextran (4FD): relative to control peptide, FIG. 5
# Protocol: as §1, §2
# [3] = test system: Caco-2 cell monolayers; assay: Trans-epithelial electrical resistance (TEER) of Caco-2 monolayers after apical peptide application; assay type: cell-based, human; details: FIG. 6; for TEER after peptide removal: fresh media to apical compartment after 180 min exposure
# [4] = Blood glucose after SC or intraluminal intestinal (ILI) injection of insulin with PIP peptides; assay type: in vivo, rat
# Protocol: Male Wistar rats, bred in house, were 225-275 g (approximately 6-8 weeks old) when placed on study. Rats were housed in groups of 3-5 per cage in a 12/12 hr light/dark cycle. All experiments were conducted during the light phase and carried out using a non-recovery protocol that used continuous isoflurane anesthesia. A 4-5 cm midline abdominal incision was made to expose mid-jejunum to early ileum regions of the small intestine and to provide access to the portal vein for the insertion of a cannula. Solutions of insulin (human recombinant; Sigma) and PIP peptides were prepared in 0.9% saline containing 10 mM citric acid to reduce local proteolysis and mixed 1:1 before injection using a 29-gauge hypodermic needle in a volume of 200 μL/kg (or ˜50 μL, per 250 g rat). The injection site was marked with a permanent marker. The incision was closed with surgical glue. Blood draws were taken from the portal vein as well as systemic circulation over the next two hours to monitor glucose, serum insulin and endotoxin. Control treatment groups included SC injection of insulin […] as well as intestinal injection of PIP peptide without insulin or insulin alone in the phosphate buffered saline (PBS) formulation used for all groups. At the end of a study, a 3-5 mm region about the marked intestine segment was isolated. This tissue was lysed for biochemical assessment of MLC phosphorylation state or fixed, sectioned, and stained with hematoxylin/eosin prior to analysis read by a licensed veterinary pathologist. Subcutaneous (SC) insulin injections (20 μl/kg) were performed in the mid-scapular region and blood glucose was measured in the same manner. All experiments were performed in accordance with the U.K. Animals (Scientific Procedures) Act of 1986, the European Communities Council Directive of 1986 (86/609/EEC), and the University of Bath's ethical review procedures.
# as §2
# [5] = test system: Caco-2 cells
# Protocol: (§3) MTT assay: Cell viability was assessed using the 3-(4,5-dimethylthiazol-2-yl)-2,5-diphenyl tetrazolium bromide (MTT; Invitrogen, Paisley, UK) assay. Following exposure of cells to CPP complexes for 72 hours, 0.5 mg/ml MTT was added to the culture medium and incubated with the cells for a further 3 hours. Media was then removed and replaced with DMSO to lyse the cells. Absorbance was then recorded at 550 nm.
# [6] = test system: myosin light chain (MLC) phosphorylated at Ser19; assay: PhosphoMLC analysis (Western blot) of intestinal tissue after ILI injection; assay type: in vivo, rat; details: 20 mM peptide
# Protocol: After rinsing with ice cold PBS, Caco-2 monolayers or epithelial cells from isolated intestinal tissue were lysed in 3 μL of a protease inhibitor cocktail and 200 μL RIPA buffer and left on ice for 10 min. Isolated intestinal tissue was similarly placed in ice cold PBS for 15 min prior to maceration in a protease inhibitor cocktail and RIPA buffer, being left on ice for 10 min. All cell and tissues lysates were centrifuged at 8000 rpm for 15 min to collect the supernatant, which was stored at −80° C. until use. For Western blots analysis, lysates were separated by SDS-PAGE (12%) run at 220V for 40 min and electro-transferred onto a PDVF membrane at 30V for 70 min using an XCell™ Blot module (Invitrogen). Membranes were blocked using 5% bovine serum albumin in TBS-T (2 M Tris, HCl, pH 7.5, 4 M NaCl and 0.1% Tween 20) for 1 hr. Membranes were washed with water, incubated with primary antibody (anti-myosin light chain (phospho S20) antibody or anti-myosin light chain 2) antibody overnight at 5° C., washed thrice with TBS-T, and then incubated with secondary horseradish […] (HRP)-coupled antibody for 1 hr at room temperature. After washing thrice in TBS-T, HRP activity was detected by ECL (Santa Cruz).
# After rinsing with ice cold PBS to remove PIP peptide or control treatment agents, isolated intestinal tissue was placed in ice cold PBS for 15 min prior to addition of 25 μl protease inhibitor cocktail (Fisher), 25 μl phosphatase inhibitor cocktail (Fisher) and 500 μl RIPA buffer (Sigma Aldrich). After 10 min on ice lysates were centrifuged at 8000 rpm for 15 min to collect the supernatant, which was stored at −80° C. until use. For Western blots analysis, lysates were separated by SDS-PAGE (12%) run at 220V for 40 min and electro-transferred onto a PDVF membrane at 30V for 70 min using an XCell™ Blot module (Invitrogen). Membranes were blocked using 5% bovine serum albumin in TBS-T (2 M Tris HCl, pH 7.5, 4 M NaCl and 0.1% Tween 20) for 1 h. Membranes were washed with water, incubated with primary antibody (anti-myosin light chain (phospho S19) antibody (Cell Signalling Technologies) or anti-myosin light chain 2 antibody (Abcam) overnight at 5° C., washed thrice with TBS-T, and then incubated with secondary horseradish […] (HRP)-coupled antibody for 1 h at room temperature. After washing thrice in TBS-T, HRP activity was detected by ECL (Santa Cruz).
# [7] = test system: Caco-2 cells; assay: Cell viability / cytotoxicity, MTT assay
# Protocol: as §3
substance,measurement,setting,value
NH2-RRK TVKYDRR-NH2 (H-RRKTVKYDRR-NH2) [compound 5],Efficacy at 5 mM (TEER reduction),[1]; 5 mM,No
NH2-RRV EVKYDRR-NH2 [peptide 640],permeability of 4 kDa dextran,[2]; 5 mM,failed to affect
same,transport of paracellular marker 4 kDa fluorescent dextran (4FD),[2]; 5 mM,increased transport of a paracellular marker relative to the control
same,increase of rate of 4 kDa dextran permeation,[2]; 10 mM apical,~3 fold
same,flux of 70 kDa dextran,[2]; concentration not given,failed to affect
same,TEER after peptide removal,[3],rapid reversal of TEER depression
same,drop of TEER,"[1]; 5 mM apical, within 25 min of addition",50%
same,Efficacy at 5 mM (TEER reduction),[1]; 5 mM,Yes
same,TEER decrease to % of its initial value,"[1]; 5 mM, FIG. 5",~50%
same,loss in TEER,"[1]; 5 mM, after 180 min of exposure",~50%
same,"TEER recovery, % of original values","[1]; after gentle washing, within 24 h",80%
same,blood glucose change profile,[4]; ILI of 30 IU/kg insulin plus 10 mM peptide,much delayed decrease
same,cell viability (mitochondrial membrane polarity marker MTS),[5],did not affect cell viability
same,MLC phosphorylation ratio (MLC to pMLC),[6]; 15 min,significantly increased
same,MLC phosphorylation ratio (MLC to pMLC),[6]; 45 min,remained elevated
same,MLC phosphorylation ratio (MLC to pMLC),[6]; 90 min,returning to initial levels
NH2-RRV TVKYDRR-NH2 (H-RRVTVKYDRR-NH2) [peptide 1],Efficacy at 5 mM (TEER reduction),[1]; 5 mM,No
NH2-RRV TVKYKRR-NH2 (H-RRVTVKYKRR-NH2) [compound 3],Efficacy at 5 mM (TEER reduction),[1]; 5 mM,No
NH2-RRVpTVKYDRR-NH2 (RRVTVKYDRR; HELM PEPTIDE1{R.R.V.[C[C@@H](OP(=O)(O)O)[C@H](N[*:1])C(=O)[*:2]].V.K.Y.D.R.R.[am]}$$$$V2.0; SMILES CC(C)[C@H](NC(=O)[C@H](CCCNC(=N)N)NC(=O)[C@@H](N)CCCNC(=N)N)C(=O)N[C@H](C(=O)N[C@H](C(=O)N[C@@H](CCCCN)C(=O)N[C@@H](Cc1ccc(O)cc1)C(=O)N[C@@H](CC(=O)O)C(=O)N[C@@H](CCCNC(=N)N)C(=O)N[C@@H](CCCNC(=N)N)C(N)=O)C(C)C)[C@@H](C)OP(=O)(O)O) [peptide 2],Efficacy at 5 mM (TEER reduction),[1]; 5 mM,No
NH2-RRVpTVKYKRR-NH2 (RRVTVKYKRR; HELM PEPTIDE1{R.R.V.[C[C@@H](OP(=O)(O)O)[C@H](N[*:1])C(=O)[*:2]].V.K.Y.K.R.R.[am]}$$$$V2.0; SMILES CC(C)[C@H](NC(=O)[C@H](CCCNC(=N)N)NC(=O)[C@@H](N)CCCNC(=N)N)C(=O)N[C@H](C(=O)N[C@H](C(=O)N[C@@H](CCCCN)C(=O)N[C@@H](Cc1ccc(O)cc1)C(=O)N[C@@H](CCCCN)C(=O)N[C@@H](CCCNC(=N)N)C(=O)N[C@@H](CCCNC(=N)N)C(N)=O)C(C)C)[C@@H](C)OP(=O)(O)O) [compound 4],Efficacy at 5 mM (TEER reduction),[1]; 5 mM,No
RKAKYQYRRK (drug delivery enhancement peptide) [peptide 250],transport of paracellular marker 4 kDa fluorescent dextran (4FD),[2]; 5 mM,increased transport of a paracellular marker relative to the control
same,"4 kDa dextran flux rates, comparison",[2]; 10 mM,10 mM peptide 640 was equal to 10 mM peptide 250
same,4 kDa dextran flux rate compared to control,[2]; 20 mM,~6 fold
same,increase of 70 kDa dextran flux,[2]; 20 mM,~3 fold
same,TEER response,[3]; 20 mM peptide 250 versus 10 mM peptide 640,very comparable response to 10 mM peptide 640
same,TEER after peptide removal,[3],rapid reversal of TEER depression
same,TEER change compared with peptide 640,"[1]; 5 mM, FIG. 5",slower and less pronounced drop in TEER
same,blood sugar recovery,"[4]; ILI of 30 IU/kg insulin plus 10 mM peptide, by 90 min",70-80%
same,drop in blood glucose,"[4]; ILI of 30 IU/kg insulin plus 20 mM peptide, by 30 min, remained for the remainder of the experiment",40%
same,cell viability (mitochondrial membrane polarity marker MTS),[7]; concentrations that modulated TEER and paracellular permeability,did not affect cell viability
same,cytotoxicity using the MTT assay,[7]; data not shown,lack of cytotoxicity
same,MLC phosphorylation ratio (MLC to pMLC),[6]; 15 min,no significant changes
same,MLC phosphorylation ratio (MLC to pMLC),[6]; 45 min,elevated
same,MLC phosphorylation ratio (MLC to pMLC),[6]; 90 min,returning to basal levels
insulin,decrease in blood glucose,[4]; SC injection of 3 IU/kg insulin,~50%
same,time at which blood glucose began to recover,[4]; SC injection of insulin,~90 min
same,time of blood glucose nadir,[4]; SC injection of insulin,~30 min
same,effect on blood sugar,[4]; intraluminal injection of 30 IU/kg insulin alone,no effect
